Measured values published in patent US9156801B2, “2-substituted oleanolic acid derivative, method preparing for same, and application thereof” (HANGZHOU BENSHENG PHARMACEUTICAL CO., LTD., priority 2011, dated 2015).
In brackets after ≈: the same amount, converted by molar mass.

Key:
Becap37 cell line = experiment: solid tumor cell growth inhibition, MTT; format: cell-based; details: Homo sapiens; for inhibition at 16 µg/mL: Becap37, 16 μg/mL compound, 72 h, read-out: IR (cell proliferation inhibition rate); for IC50: Becap37, 72 h
Procedure, shortened: (§1)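 MTT read-out of relative living-cell number after a 72 h compound exposure at 37° C, 5% CO2. Cells had been plated at 4000 per well in DMEM high glucose containing 10% fetal bovine serum and allowed 24 h before dosing. Inhibition is referenced to untreated wells set at 0%.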

A549 cell line = experiment: solid tumor cell growth inhibition, MTT; format: cell-based; details: Homo sapiens; for IC50: A549, 72 h; for inhibition at 16 µg/mL: A549, 16 μg/mL compound, 72 h, read-out: IR (cell proliferation inhibition rate)
Procedure, shortened: as §1

MGC 803 cell line = experiment: solid tumor cell growth inhibition, MTT; format: cell-based; details: Homo sapiens; for inhibition at 16 µg/mL: MGC 803, 16 μg/mL compound, 72 h, read-out: IR (cell proliferation inhibition rate); for IC50: MGC 803, 72 h
Procedure, shortened: as §1

Hela cell line = experiment: solid tumor cell growth inhibition, MTT; format: cell-based; details: Homo sapiens, 72 h; for IC50: HeLa; for inhibition at 16 µg/mL: Hela, 16 μg/mL compound, read-out: IR (cell proliferation inhibition rate)
Procedure, shortened: as §1

PANC-1 cell line = experiment: solid tumor cell growth inhibition, MTT; format: cell-based; details: Homo sapiens; for IC50: PANC-1, 72 h; for inhibition at 16 µg/mL: PANC-1, 16 μg/mL compound, 72 h, read-out: IR (cell proliferation inhibition rate)
Procedure, shortened: as §1

RKO cell line = experiment: solid tumor cell growth inhibition, MTT; format: cell-based; details: Homo sapiens, 72 h; for inhibition at 16 µg/mL: 16 μg/mL compound, read-out: IR (cell proliferation inhibition rate)
Procedure, shortened: as §1

CaES-17 cell line = experiment: solid tumor cell growth inhibition, MTT; format: cell-based; details: Homo sapiens, CaEs17; for inhibition at 16 µg/mL: CaES-17, 16 μg/mL compound, 72 h, read-out: IR (cell proliferation inhibition rate); for IC50: CaES-17, 72 h
Procedure, shortened: as §1

CNE cell line = experiment: solid tumor cell growth inhibition, MTT; format: cell-based; details: Homo sapiens, 72 h; for inhibition at 16 µg/mL: 16 μg/mL compound, read-out: IR (cell proliferation inhibition rate)
Procedure, shortened: as §1

PC-3 cell line = experiment: solid tumor cell growth inhibition, MTT; format: cell-based; details: Homo sapiens; for IC50: PC-3, 72 h; for inhibition at 16 µg/mL: PC-3, 16 μg/mL compound, 72 h, read-out: IR (cell proliferation inhibition rate)
Procedure, shortened: as §1

Hep-2 cell line = experiment: solid tumor cell growth inhibition, MTT; format: cell-based; details: Homo sapiens; for IC50: HEp-2, 72 h; for inhibition at 16 µg/mL: Hep-2, 16 μg/mL compound, 72 h, read-out: IR (cell proliferation inhibition rate)
Procedure, shortened: as §1

U87 MG cell line = experiment: solid tumor cell growth inhibition, MTT; format: cell-based; details: Homo sapiens, U-87 MG, 72 h; for inhibition at 16 µg/mL: 16 μg/mL compound, read-out: IR (cell proliferation inhibition rate)
Procedure, shortened: as §1

MG-63 cell line = experiment: solid tumor cell growth inhibition, MTT; format: cell-based; details: Homo sapiens; for IC50: MG-63, 72 h; for inhibition at 16 µg/mL: MG-63, 16 μg/mL compound, 72 h, read-out: IR (cell proliferation inhibition rate)
Procedure, shortened: as §1

SK-OV-3 cell line = experiment: solid tumor cell growth inhibition, MTT; format: cell-based; details: Homo sapiens; for IC50: SK-OV-3, 72 h; for inhibition at 16 µg/mL: SK-OV-3, 16 μg/mL compound, 72 h, read-out: IR (cell proliferation inhibition rate)
Procedure, shortened: as §1

RPMI8226 cell line = experiment: multiple myeloma cell growth inhibition, MTT; format: cell-based; details: Homo sapiens, RPMI-8226; for inhibition at 16 µg/mL: RPMI8226, 16 μg/mL compound, 72 h, read-out: IR (cell proliferation inhibition rate); for IC50: RPMI8226, 72 h
Procedure, shortened: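 RPMI8226 cells (6000 per well) in RPMI 1640 with 10% FBS were exposed to several concentrations of compound for 72 h at 37° C and 5% CO2. Viable cells were quantified by MTT, with inhibition set to 0% in untreated controls.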

NB4 cell line = experiment: leukemia cell growth inhibition, MTT; format: cell-based; details: Homo sapiens, NB-4; for inhibition at 16 µg/mL: NB4, 16 μg/mL compound, 72 h, read-out: IR (cell proliferation inhibition rate); for IC50: NB4, 72 h
Procedure, shortened: (§2)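 Leukemia cells (6000 per well) are grown in 1640 medium containing 10% fetal bovine serum, treated with several concentrations of test derivative, and incubated 72 hours at 37° C in 5% CO2. The relative viable count is then measured by MTT.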

Kasumi-1 cell line = experiment: leukemia cell growth inhibition, MTT; format: cell-based; details: Homo sapiens; for inhibition at 16 µg/mL: Kasumi-1, 16 μg/mL compound, 72 h, read-out: IR (cell proliferation inhibition rate); for IC50: Kasumi-1, 72 h
Procedure, shortened: as §2

Jurkat cell line = experiment: leukemia cell growth inhibition, MTT; format: cell-based; details: Homo sapiens, 72 h; for inhibition at 16 µg/mL: 16 μg/mL compound, read-out: IR (cell proliferation inhibition rate)
Procedure, shortened: as §2

K562/adr cell line = experiment: leukemia cell growth inhibition, MTT; format: cell-based; details: Homo sapiens, 72 h; for IC50: K562/Adr; for inhibition at 16 µg/mL: K562/adr, 16 μg/mL compound, read-out: IR (cell proliferation inhibition rate)
Procedure, shortened: as §2

H9 cell line = experiment: leukemia cell growth inhibition, MTT; format: cell-based; details: Homo sapiens; for IC50: H9, 72 h; for inhibition at 16 µg/mL: H9, 16 μg/mL compound, 72 h, read-out: IR (cell proliferation inhibition rate)
Procedure, shortened: as §2

Hep G2 cell line = experiment: solid tumor cell growth inhibition, MTT; format: cell-based, human; details: Homo sapiens; for inhibition at 16 µg/mL: HepG2, 72 h, Hep G2, 16 μg/mL compound, 72 h, read-out: IR (cell proliferation inhibition rate); for IC50: HepG2, Hep G2, 72 h
Procedure, shortened: as §1

IC50 (Becap37 cell line) [µg/mL] | IC50 (A549 cell line) [µg/mL] | IC50 (MGC 803 cell line) [µg/mL] | IC50 (Hela cell line) [µg/mL] | IC50 (PANC-1 cell line) [µg/mL] | IC50 (RKO cell line) [µg/mL] | IC50 (CaES-17 cell line) [µg/mL] | IC50 (CNE cell line) [µg/mL] | IC50 (PC-3 cell line) [µg/mL] | IC50 (Hep-2 cell line) [µg/mL] | SMILES | inhibition at 16 µg/mL (Becap37 cell line) [%] | inhibition at 16 µg/mL (A549 cell line) [%] | inhibition at 16 µg/mL (MGC 803 cell line) [%] | inhibition at 16 µg/mL (Hela cell line) [%] | inhibition at 16 µg/mL (PANC-1 cell line) [%] | inhibition at 16 µg/mL (RKO cell line) [%] | inhibition at 16 µg/mL (CaES-17 cell line) [%] | inhibition at 16 µg/mL (CNE cell line) [%] | inhibition at 16 µg/mL (PC-3 cell line) [%] | inhibition at 16 µg/mL (Hep-2 cell line) [%] | other results
> 16 | > 16 | > 16 | > 16 | > 16 | > 16 | > 16 | > 16 | > 16 | > 16 | COC(=O)[C@]12CCC(C)(C)C[C@H]1C1=CC[C@@H]3[C@@]4(C)CC(C(=O)NCC5CC5)C(=O)C(C)(C)[C@@H]4CC[C@@]3(C)[C@]1(C)CC2 (some centres unmarked) [BS-OA-048] | -8.4 | -3.8 | -5.9 | 2.4 | -17.8 | -33.4 | -18.6 | 21.9 | 17.7 | -5.3 | inhibition at 16 µg/mL (U87 MG cell line): 5.6%; IC50 (U87 MG cell line): > 16 µg/mL; IC50 (MG-63 cell line): > 16 µg/mL; inhibition at 16 µg/mL (MG-63 cell line): -20.3%; IC50 (SK-OV-3 cell line): > 16 µg/mL; inhibition at 16 µg/mL (SK-OV-3 cell line): 22%; inhibition at 16 µg/mL (RPMI8226 cell line): 4.9%; IC50 (RPMI8226 cell line): > 16 µg/mL; inhibition at 16 µg/mL (NB4 cell line): 11%; IC50 (NB4 cell line): > 16 µg/mL; inhibition at 16 µg/mL (Kasumi-1 cell line): 0.2%; IC50 (Kasumi-1 cell line): > 16 µg/mL; inhibition at 16 µg/mL (Jurkat cell line): -21.2%; IC50 (Jurkat cell line): > 16 µg/mL; IC50 (K562/adr cell line): > 16 µg/mL; inhibition at 16 µg/mL (K562/adr cell line): 21.4%; IC50 (H9 cell line): > 16 µg/mL; inhibition at 16 µg/mL (H9 cell line): 28.9%; inhibition at 16 µg/mL (Hep G2 cell line): 7.4%; IC50 (Hep G2 cell line): > 16 µg/mL
> 16 | > 16 | 9.96 (≈ 16.1 µM) | 10.8 (≈ 17.4 µM) | > 16 | 16 (≈ 25.9 µM) | 17 (≈ 27.5 µM) | 15.6 (≈ 25.3 µM) | 7.79 (≈ 12.6 µM) | > 16 | COC(=O)[C@]12CCC(C)(C)CC1C1=CCC3[C@@]4(C)CC(C(=O)NCCc5cccnc5)C(=O)C(C)(C)C4CC[C@@]3(C)[C@]1(C)CC2 (some centres unmarked) [BS-OA-027] | 34.3 | 45.6 | 80.1 | 62 | 36.9 | 46.8 | 49.5 | 51.3 | 68.9 | 35.5 | inhibition at 16 µg/mL (U87 MG cell line): 48.7%; IC50 (U87 MG cell line): 16 µg/mL (≈ 25.9 µM); IC50 (MG-63 cell line): > 16 µg/mL; inhibition at 16 µg/mL (MG-63 cell line): 25.4%; IC50 (SK-OV-3 cell line): 6.63 µg/mL (≈ 10.7 µM); inhibition at 16 µg/mL (SK-OV-3 cell line): 91.6%; inhibition at 16 µg/mL (RPMI8226 cell line): 86.5%; IC50 (RPMI8226 cell line): 6.1 µg/mL (≈ 9.89 µM); inhibition at 16 µg/mL (NB4 cell line): 93.8%; IC50 (NB4 cell line): 4.57 µg/mL (≈ 7.41 µM); inhibition at 16 µg/mL (Kasumi-1 cell line): 72.2%; IC50 (Kasumi-1 cell line): 12.4 µg/mL (≈ 20.1 µM); inhibition at 16 µg/mL (Jurkat cell line): 83.4%; IC50 (Jurkat cell line): 9.85 µg/mL (≈ 16 µM); IC50 (K562/adr cell line): 3.7 µg/mL (≈ 6 µM); inhibition at 16 µg/mL (K562/adr cell line): 82.6%; IC50 (H9 cell line): 7.72 µg/mL (≈ 12.5 µM); inhibition at 16 µg/mL (H9 cell line): 92.5%; inhibition at 16 µg/mL (Hep G2 cell line): 51.4%; IC50 (Hep G2 cell line): 15.6 µg/mL (≈ 25.3 µM)
